Results as given in ChEMBL document CHEMBL6153156, “Potential of Histone Deacetylase 6 Inhibitors as a Treatment of Neurodegenerative Diseases” (ACS Med Chem Lett, 2025).

What follows are molecules tested against T1, Protein deacetylase HDAC6 (Homo sapiens) (UniProt Q9UBN7) (assay: Inhibition of full length HDAC6 (unknown origin) extracted from Sf9 insect cells at 10 uM preincubated for 60 mins followed by substrate addition and measured after 20 mins by luminescence based HDAC-GloTM I/II assay relative to control). Settings: time 80.0 min.
T1 sequence (whole entry): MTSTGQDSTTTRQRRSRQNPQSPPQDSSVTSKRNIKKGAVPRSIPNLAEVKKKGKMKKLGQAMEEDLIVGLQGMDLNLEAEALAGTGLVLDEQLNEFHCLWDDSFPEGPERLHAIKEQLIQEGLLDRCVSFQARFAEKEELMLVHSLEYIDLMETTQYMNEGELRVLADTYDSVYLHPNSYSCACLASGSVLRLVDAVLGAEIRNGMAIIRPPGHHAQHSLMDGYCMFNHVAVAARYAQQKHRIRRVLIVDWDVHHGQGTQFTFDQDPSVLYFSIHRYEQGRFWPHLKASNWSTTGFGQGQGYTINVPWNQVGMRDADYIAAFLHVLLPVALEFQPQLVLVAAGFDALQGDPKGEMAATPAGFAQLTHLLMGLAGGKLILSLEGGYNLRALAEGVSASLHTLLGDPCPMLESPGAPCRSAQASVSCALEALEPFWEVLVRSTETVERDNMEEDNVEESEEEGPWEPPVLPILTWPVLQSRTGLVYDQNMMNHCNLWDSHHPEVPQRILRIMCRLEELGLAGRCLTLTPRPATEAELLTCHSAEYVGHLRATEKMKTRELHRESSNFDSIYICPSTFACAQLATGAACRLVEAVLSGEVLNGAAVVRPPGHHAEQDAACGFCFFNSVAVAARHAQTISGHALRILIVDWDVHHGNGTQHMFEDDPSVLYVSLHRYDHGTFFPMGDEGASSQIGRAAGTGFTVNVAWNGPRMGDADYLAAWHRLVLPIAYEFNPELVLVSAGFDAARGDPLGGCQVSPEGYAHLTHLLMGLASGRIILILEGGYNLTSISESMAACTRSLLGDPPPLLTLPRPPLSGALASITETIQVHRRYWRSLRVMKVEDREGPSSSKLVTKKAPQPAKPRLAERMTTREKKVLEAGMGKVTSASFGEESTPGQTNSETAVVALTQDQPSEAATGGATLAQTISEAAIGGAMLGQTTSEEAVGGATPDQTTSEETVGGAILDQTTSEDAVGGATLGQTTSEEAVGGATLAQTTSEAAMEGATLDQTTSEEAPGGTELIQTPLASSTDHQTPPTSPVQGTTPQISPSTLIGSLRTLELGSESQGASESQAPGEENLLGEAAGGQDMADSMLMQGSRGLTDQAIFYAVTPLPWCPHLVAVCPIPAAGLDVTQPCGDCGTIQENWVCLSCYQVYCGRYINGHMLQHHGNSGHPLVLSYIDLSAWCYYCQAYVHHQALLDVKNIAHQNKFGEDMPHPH
Format: cell-free

| inhibition | SMILES |
| --- | --- |
| 100% | O=C1c2cc(-c3nnc(C(F)F)o3)ccc2CN1[C@H](C1CC1)[C@@H](O)c1cccc(F)c1 |
| 99% | O=C1c2cc(-c3nnc(C(F)F)o3)ccc2CN1[C@H](c1ccccn1)[C@@H](O)c1ccc(C(F)(F)F)cn1 |
| 99% | O=C1c2cc(-c3nnc(C(F)F)o3)ccc2CN1[C@H](c1ccc(F)c(F)c1)[C@@H](O)c1ccccn1 |
| 96% | O=C1c2cc(-c3nnc(C(F)F)o3)ccc2CN1[C@H](C1CC1)[C@@H](O)c1ncccn1 |
| 100% | O=C1c2cc(-c3nnc(C(F)F)o3)ccc2CN1[C@H](C1CC1)[C@@H](O)c1ccccn1 |
| 100% | O=C1c2cc(-c3nnc(C(F)F)o3)ccc2CN1[C@H](C1CC1)[C@@H](O)c1ccc(F)cn1 |
| 101% | O=C1c2cc(-c3nnc(C(F)F)o3)ccc2CN1[C@H](c1cccnn1)[C@@H](O)c1cccc(Cl)c1 |
| 99% | O=C1c2cc(-c3nnc(C(F)F)o3)ccc2CN1[C@H](c1ccc(F)cc1)[C@@H](O)C1CCOCC1 (racemic) |
| 100% | O=C1c2cc(-c3nnc(C(F)F)o3)ccc2CN1[C@@H](c1ccccn1)[C@H](O)c1ccccn1 |
| 100% | O=C1c2cc(-c3nnc(C(F)F)o3)ccc2CN1[C@H](c1cnccn1)[C@@H](O)c1cccc(Cl)c1 |
| 101% | O=C1c2cc(-c3nnc(C(F)F)o3)ccc2CN1[C@H](c1ccccn1)[C@@H](O)c1ccccn1 |
| 100% | O=C1c2cc(-c3nnc(C(F)F)o3)ccc2CN1[C@H](C1CCC(F)(F)CC1)[C@@H](O)c1ccc(F)nc1 (racemic) |
| 99% | O=C1c2cc(-c3nnc(C(F)F)o3)ccc2CN1[C@H](c1ccc(F)cc1)[C@@H](O)c1ccc(F)nc1 |
| 100% | O=C1c2cc(-c3nnc(C(F)F)o3)ccc2CN1[C@H](c1cccc(F)c1)[C@@H](O)c1ccccn1 (racemic) |
